Test results from patent US10695337B2, “Piperidin-4-yl azetidine derivatives as JAK1 inhibitors” (Incyte Corporation, priority 2010, dated 2020).

Molecular target: human JAK1 (a.a. 837-1142)
Experiment: In vitro JAK kinase assay (HTRF, phosphorylation of a biotinylated peptide), JAK1
Type: biochemical
Conditions: measured at 1 mM ATP; JAK2 IC50 / JAK1 IC50
How it was run: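 N-terminal His-tagged catalytic domains, baculovirus-expressed in insect cells, phosphorylated a biotinylated peptide for 1 hr at room temperature. EDTA stop was followed by SA-APC and Eu-Py20 antibody for 40 minutes, with phosphopeptide read by HTRF.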

SMILES | IC50 Ratio JAK2/JAK1
N#CCC1(n2cc(-c3ncnc4[nH]ccc34)cn2)CN(C2CCN(C(=O)c3ccccc3F)CC2)C1 [Example 67, {1-[1-(2-fluorobenzoyl)piperidin-4-yl]-3-[4-(7H-pyrrolo[2,3-d]pyrimidin-4-yl)-1H-pyrazol-1-yl]azetidin-3-yl}acetonitrile] | 4.7
N#CCC1(n2cc(-c3ncnc4[nH]ccc34)cn2)CN(C2CCN(C(=O)c3sc(C(F)(F)F)cc3O)CC2)C1 [Example 71, {1-{1-[3-hydroxy-5-(trifluoromethyl)-2-thienylcarbonyl]piperidin-4-yl}-3-[4-(7H-pyrrolo[2,3-d]pyrimidin-4-yl)-1H-pyrazol-1-yl]azetidin-3-yl}acetonitrile] | 4.4
COc1cscc1C(=O)N1CCC(N2CC(CC#N)(n3cc(-c4ncnc5[nH]ccc45)cn3)C2)CC1 [Example 72, {1-{1-[(4-methoxy-3-thienyl)carbonyl]piperidin-4-yl}-3-[4-(7H-pyrrolo[2,3-d]pyrimidin-4-yl)-1H-pyrazol-1-yl]azetidin-3-yl} acetonitrile] | 6.6
COc1c(C(=O)N2CCC(N3CC(CC#N)(n4cc(-c5ncnc6[nH]ccc56)cn4)C3)CC2)csc1Cl [Example 74, {1-{1-[(5-chloro-4-methoxy-3-thienyl)carbonyl]piperidin-4-yl}-3-[4-(7H-pyrrolo[2,3-d]pyrimidin-4-yl)-1H-pyrazol-1-yl]azetidin-3-yl} acetonitrile] | 3.8
N#CCC1(n2cc(-c3ncnc4[nH]ccc34)cn2)CN(C2CCN(C(=O)c3ccsc3Br)CC2)C1 [Example 75, {1-{1-[(2-bromo-3-thienyl)carbonyl]piperidin-4-yl}-3-[4-(7H-pyrrolo[2,3-d]pyrimidin-4-yl)-1H-pyrazol-1-yl]azetidin-3-yl}acetonitrile] | 3.4
N#CCC1(n2cc(-c3ncnc4[nH]ccc34)cn2)CN(C2CCN(C(=O)c3sccc3Cl)CC2)C1 [Example 76, {1-{1-[(3-chloro-2-thienyl)carbonyl]piperidin-4-yl}-3-[4-(7H-pyrrolo[2,3-d]pyrimidin-4-yl)-1H-pyrazol-1-yl]azctidin-3-yl}acetonitrile] | 5.5
N#CCC1(n2cc(-c3ncnc4[nH]ccc34)cn2)CN(C2CCN(C(=O)c3ccc(Cl)s3)CC2)C1 [Example 77, {1-{1-[(5-chloro-2-thienyl)carbonyl]piperidin-4-yl}-3-[4-(7H-pyrrolo[2,3-d]pyrimidin-4-yl)-1H-pyrazol-1-yl]azetidin-3-yl}acetonitrile] | 5.5
Cc1ccc(C(=O)N2CCC(N3CC(CC#N)(n4cc(-c5ncnc6[nH]ccc56)cn4)C3)CC2)s1 [Example 80, {1-{1-[(5-methyl-2-thienyl)carbonyl]piperidin-4-yl}-3-[4-(7H-pyrrolo[2,3-d]pyrimidin-4-yl)-1H-pyrazol-1-yl]azetidin-3-yl}acetonitrile] | 4.1
N#CCC1(n2cc(-c3ncnc4[nH]ccc34)cn2)CN(C2CCN(C(=O)c3ccc(O)c(Cl)c3)CC2)C1 [Example 84, {1-[1-(3-chloro-4-hydroxybenzoyl)piperidin-4-yl]-3-[4-(7H-pyrrolo[2,3-d]pyrimidin-4-yl)-1H-pyrazol-1-yl]azetidin-3-yl}acetonitrile] | 6.5
N#CCC1(n2cc(-c3ncnc4[nH]ccc34)cn2)CN(C2CCN(C(=O)c3cccc4ccccc34)CC2)C1 [Example 87, {1-[1-(1-naphthoyl)piperidin-4-yl]-3-[4-(7H-pyrrolo[2,3-d]pyrimidin-4-yl)-1H-pyrazol-1-yl]azetidin-3-yl}acetonitrile] | 0.3
N#CCC1(n2cc(-c3ncnc4[nH]ccc34)cn2)CN(C2CCN(C(=O)c3cnc4ccccc4c3)CC2)C1 [Example 88, {3-[4-(7H-pyrrolo[2,3-d]pyrimidin-4-yl)-1H-pyrazol-1-yl]-1-[1-(quinolin-3-ylcarbonyl)piperidin-4-yl]azetidin-3-yl}acetonitrile] | 0.9
N#CCC1(n2cc(-c3ncnc4[nH]ccc34)cn2)CN(C2CCN(C(=O)c3ccc4ncccc4c3)CC2)C1 [Example 89, {3-[4-(7H-pyrrolo[2,3-d]pyrimidin-4-yl)-1H-pyrazol-1-yl]-1-[1-(quinolin-6-ylcarbonyl)piperidin-4-yl]azetidin-3-yl}acetonitrile] | 2.6
N#CCC1(n2cc(-c3ncnc4[nH]ccc34)cn2)CN(C2CCN(C(=O)c3cc4ccccc4s3)CC2)C1 [Example 90, {1-[1-(1-benzothien-2-ylcarbonyl)piperidin-4-yl]-3-[4-(7H-pyrrolo[2,3-d]pyrimidin-4-yl)-1H-pyrazol-1-yl]azetidin-3-yl}acetonitrile] | 1.5

Now from value to compound:

IC50 Ratio JAK2/JAK1 | SMILES
1.8 | CN(C)c1c(F)c(F)c(C(=O)N2CCC(N3CC(CC#N)(n4cc(-c5ncnc6[nH]ccc56)cn4)C3)CC2)c(F)c1F [Example 60, {1-{1-[4-(dimethylamino)-2,3,5,6-tetrafluorobenzoyl]piperidin-4-yl}-3-[4-(7H-pyrrolo[2,3-d]pyrimidin-4-yl)-1H-pyrazol-1-yl]azetidin-3-yl}acetonitrile]
4.2 | N#CCC1(n2cc(-c3ncnc4[nH]ccc34)cn2)CN(C2CCN(C(=O)c3c(F)cncc3F)CC2)C1 [Example 61, {1-[1-(3,5-difluoroisonicotinoyl)piperidin-4-yl]-3-[4-(7H-pyrrolo[2,3-d]pyrimidin-4-yl)-1H-pyrazol-1-yl]azetidin-3-yl}acetonitrile]
4.2 | Cc1cc(C(=O)N2CCC(N3CC(CC#N)(n4cc(-c5ncnc6[nH]ccc56)cn4)C3)CC2)cs1 [Example 73, {1-{1-[(5-methyl-3-thienyl)carbonyl]piperidin-4-yl}-3-[4-(7H-pyrrolo[2,3-d]pyrimidin-4-yl)-1H-pyrazol-1-yl]azetidin-3-yl} acetonitrile]
5.4 | Cc1ccsc1C(=O)N1CCC(N2CC(CC#N)(n3cc(-c4ncnc5[nH]ccc45)cn3)C2)CC1 [Example 78, {1-{1-[(3-methyl-2-thienyl)carbonyl]piperidin-4-yl}-3-[4-(7H-pyrrolo[2,3-d]pyrimidin-4-yl)-1H-pyrazol-1-yl]azetidin-3-yl}acetonitrile]
4.2 | COc1ccsc1C(=O)N1CCC(N2CC(CC#N)(n3cc(-c4ncnc5[nH]ccc45)cn3)C2)CC1 [Example 81, {1-{1-[(3-methoxy-2-thienyl)carbonyl]piperidin-4-yl}-3-[4-(7H-pyrrolo[2,3-d]pyrimidin-4-yl)-1H-pyrazol-1-yl]azetidin-3-yl}acetonitrile]
5.3 | N#CCC1(n2cc(-c3ncnc4[nH]ccc34)cn2)CN(C2CCN(C(=O)c3ccc(C(F)(F)F)cc3F)CC2)C1 [Example 82, {1-{1-[2-fluoro-4-(trifluoromethyl)benzoyl]piperidin-4-yl}-3-[4-(7H-pyrrolo[2,3-d]pyrimidin-4-yl)-1H-pyrazol-1-yl]azetidin-3-yl} acetonitrile]
5.8 | N#CCC1(n2cc(-c3ncnc4[nH]ccc34)cn2)CN(C2CCN(C(=O)c3c(F)cc(C#N)cc3F)CC2)C1 [Example 83, 4-[(4-{3-(cyanomethyl)-3-[4-(7H-pyrrolo[2,3-d]pyrimidin-4-yl)-1H-pyrazol-1-yl]azetidin-1-yl}piperidin-1-yl)carbonyl]-3,5-difluorobenzonitrile]
